# Data published in paper doi:10.1101/2020.05.04.072892v1 (bioRxiv, 2020).
# Test system: GBM6 cells
# Assay: Nanoparticle internalization by flow cytometry, GBM6 cells
# Type: cell-based, Human
# Settings: for cell internalization of free dye: average bulk FL of FAM with flow cytometry, over time
Compound,cell internalization of free dye,cell internalization of free dye (listed as free FAM),time of maximum DOX fluorescence in cells (average bulk FL of DOX by FCT) [h]
"5,6-carboxyfluorescein [FAM]",cannot enter cells,no cell,–
"COc1cccc2c1C(=O)c1c(O)c3c(c(O)c1C2=O)C[C@@](O)(C(=O)CO)C[C@@H]3O[C@H]1C[C@H](N)[C@H](O)[C@H](C)O1 [free DOX, doxorubicin]",–,–,24
